Results on two compounds are retold here after article PMC10451299, “Phytochemical Constituents and Biological Activity of Wild and Cultivated Rosmarinus officinalis Hydroalcoholic Extracts” (Antioxidants, 2023).

Assay [1] in a line: FRAP (ferric ion reducing antioxidant power) assay. To be noted: mean ± SD, three experiments.
Assay [2] can be described thus: DPPH radical scavenging assay. The following applies: mean ± SD, three experiments. The method, then:
The antiradical activity was determined using the stable 1,1-diphenyl-2-picrylhydrazyl radical (DPPH) following the protocol of Brand-Williams with some modifications reported by De Martino and coworkers.

Assay [3] deals with AChE. The following applies: cited from earlier work.

Marks after values point to notes of the source that are not given here.

Take `Cc1c(C)c2c(c(C)c1O)CCC(C)(C(=O)O)O2` (stereo not shown) [Trolox, 6-hydroxy-2,5,7,8-tetramethylchroman-2-carboxylic acid]: the FRAP in assay [1] is listed as 5.48 ± 0.34 ^a mmol Fe^2+ Equivalents/g Extract. Besides, the “DPPH IC50 (concentration required to reduce the absorbance of DPPH by 50%)” value in assay [2] is recorded as 3.65 ± 0.08 ^c µg/mL.
`COc1ccc(-c2cc(=O)c3c(O)c(OC)c(OC)cc3o2)cc1` [salvigenin, Salvigenin]: in assay [3], the “activity on AChE” value is recorded as “not active” and the “effect on the AChE enzyme” value was “stimulating effect”.
